Data: patent publication US10670605B2, “Cysteine reactive probes and uses thereof” (The Scripps Research Institute, priority 2015, dated 2020)

Key:
Assay in all cases: Competitive isoTOP-ABPP, cell lysates
Type in all cases: binding
IRAK1 C608 (P51617) = IRAK1 C608 (P51617) (Homo sapiens, UniProt P51617); conditions: for R value (DMSO/fragment) / isoTOP-ABPP ratio, P51617_C608: 500 μM, invitro, ramos; for isoTOP-ABPP ratio (reactivity profile), P51617_C608: 500 μm in-vitro ramos; for isoTOP-ABPP reactivity ratio, P51617_C608 / isoTOP-ABPP reactivity profile ratio, P51617_C608: 500 μm
Sequence of IRAK1 C608 (P51617) (P51617 whole entry, the tested form may be a part): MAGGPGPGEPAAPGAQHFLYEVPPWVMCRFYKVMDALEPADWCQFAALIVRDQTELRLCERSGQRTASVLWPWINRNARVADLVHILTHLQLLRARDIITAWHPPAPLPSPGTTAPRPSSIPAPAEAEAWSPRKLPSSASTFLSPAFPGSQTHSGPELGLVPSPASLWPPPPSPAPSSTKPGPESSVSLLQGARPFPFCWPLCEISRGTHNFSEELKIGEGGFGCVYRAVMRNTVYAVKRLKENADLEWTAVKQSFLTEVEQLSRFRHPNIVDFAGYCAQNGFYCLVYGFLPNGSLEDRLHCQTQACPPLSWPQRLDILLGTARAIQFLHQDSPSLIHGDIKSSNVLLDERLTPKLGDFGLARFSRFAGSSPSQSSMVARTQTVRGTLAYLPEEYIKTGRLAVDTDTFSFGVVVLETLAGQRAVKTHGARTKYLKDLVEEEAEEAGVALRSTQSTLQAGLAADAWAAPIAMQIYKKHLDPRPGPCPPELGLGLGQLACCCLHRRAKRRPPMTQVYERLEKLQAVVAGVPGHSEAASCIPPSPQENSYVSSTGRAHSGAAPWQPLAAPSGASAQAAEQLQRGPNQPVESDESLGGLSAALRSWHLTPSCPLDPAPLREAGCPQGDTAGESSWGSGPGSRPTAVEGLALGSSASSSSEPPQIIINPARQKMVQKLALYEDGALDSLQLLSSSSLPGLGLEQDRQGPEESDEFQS

NCF1 C378 (P14598) = molecular target: T1, NCF1 C378 (P14598) (Homo sapiens, UniProt P14598)
T1 sequence (P14598 1-390): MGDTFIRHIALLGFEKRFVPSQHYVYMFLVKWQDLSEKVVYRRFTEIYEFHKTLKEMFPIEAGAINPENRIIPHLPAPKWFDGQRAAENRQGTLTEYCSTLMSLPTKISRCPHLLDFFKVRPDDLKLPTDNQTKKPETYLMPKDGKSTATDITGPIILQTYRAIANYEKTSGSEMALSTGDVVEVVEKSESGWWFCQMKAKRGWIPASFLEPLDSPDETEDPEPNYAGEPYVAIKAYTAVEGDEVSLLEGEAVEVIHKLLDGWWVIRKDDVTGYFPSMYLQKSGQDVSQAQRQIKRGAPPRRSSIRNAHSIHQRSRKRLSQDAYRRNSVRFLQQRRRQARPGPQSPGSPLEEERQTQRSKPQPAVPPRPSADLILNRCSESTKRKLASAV

RELB C109 (Q01201) = molecular target: T2, RELB C109 (Q01201) (Homo sapiens, UniProt Q01201); conditions: for R value (DMSO/fragment): 500 μM
T2 sequence (Q01201 1-579): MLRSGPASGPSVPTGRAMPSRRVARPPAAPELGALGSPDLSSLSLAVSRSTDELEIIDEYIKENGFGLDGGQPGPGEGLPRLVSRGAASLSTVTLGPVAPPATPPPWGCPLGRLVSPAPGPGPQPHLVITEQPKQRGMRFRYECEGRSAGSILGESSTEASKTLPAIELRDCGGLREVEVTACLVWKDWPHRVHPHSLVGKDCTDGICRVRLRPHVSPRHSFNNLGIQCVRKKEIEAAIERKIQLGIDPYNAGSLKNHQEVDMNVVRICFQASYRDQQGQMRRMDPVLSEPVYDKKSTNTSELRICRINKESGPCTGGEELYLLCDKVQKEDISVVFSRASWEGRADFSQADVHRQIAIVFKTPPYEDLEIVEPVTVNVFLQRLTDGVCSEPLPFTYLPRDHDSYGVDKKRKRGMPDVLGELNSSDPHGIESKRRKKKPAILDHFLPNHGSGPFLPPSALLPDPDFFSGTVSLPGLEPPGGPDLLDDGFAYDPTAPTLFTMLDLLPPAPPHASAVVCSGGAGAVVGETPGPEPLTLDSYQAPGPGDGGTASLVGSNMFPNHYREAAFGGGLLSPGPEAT

USP34 C741 (Q70CQ2) = USP34 C741 (Q70CQ2) (Homo sapiens, UniProt Q70CQ2)
Sequence of USP34 C741 (Q70CQ2) (Q70CQ2 whole entry): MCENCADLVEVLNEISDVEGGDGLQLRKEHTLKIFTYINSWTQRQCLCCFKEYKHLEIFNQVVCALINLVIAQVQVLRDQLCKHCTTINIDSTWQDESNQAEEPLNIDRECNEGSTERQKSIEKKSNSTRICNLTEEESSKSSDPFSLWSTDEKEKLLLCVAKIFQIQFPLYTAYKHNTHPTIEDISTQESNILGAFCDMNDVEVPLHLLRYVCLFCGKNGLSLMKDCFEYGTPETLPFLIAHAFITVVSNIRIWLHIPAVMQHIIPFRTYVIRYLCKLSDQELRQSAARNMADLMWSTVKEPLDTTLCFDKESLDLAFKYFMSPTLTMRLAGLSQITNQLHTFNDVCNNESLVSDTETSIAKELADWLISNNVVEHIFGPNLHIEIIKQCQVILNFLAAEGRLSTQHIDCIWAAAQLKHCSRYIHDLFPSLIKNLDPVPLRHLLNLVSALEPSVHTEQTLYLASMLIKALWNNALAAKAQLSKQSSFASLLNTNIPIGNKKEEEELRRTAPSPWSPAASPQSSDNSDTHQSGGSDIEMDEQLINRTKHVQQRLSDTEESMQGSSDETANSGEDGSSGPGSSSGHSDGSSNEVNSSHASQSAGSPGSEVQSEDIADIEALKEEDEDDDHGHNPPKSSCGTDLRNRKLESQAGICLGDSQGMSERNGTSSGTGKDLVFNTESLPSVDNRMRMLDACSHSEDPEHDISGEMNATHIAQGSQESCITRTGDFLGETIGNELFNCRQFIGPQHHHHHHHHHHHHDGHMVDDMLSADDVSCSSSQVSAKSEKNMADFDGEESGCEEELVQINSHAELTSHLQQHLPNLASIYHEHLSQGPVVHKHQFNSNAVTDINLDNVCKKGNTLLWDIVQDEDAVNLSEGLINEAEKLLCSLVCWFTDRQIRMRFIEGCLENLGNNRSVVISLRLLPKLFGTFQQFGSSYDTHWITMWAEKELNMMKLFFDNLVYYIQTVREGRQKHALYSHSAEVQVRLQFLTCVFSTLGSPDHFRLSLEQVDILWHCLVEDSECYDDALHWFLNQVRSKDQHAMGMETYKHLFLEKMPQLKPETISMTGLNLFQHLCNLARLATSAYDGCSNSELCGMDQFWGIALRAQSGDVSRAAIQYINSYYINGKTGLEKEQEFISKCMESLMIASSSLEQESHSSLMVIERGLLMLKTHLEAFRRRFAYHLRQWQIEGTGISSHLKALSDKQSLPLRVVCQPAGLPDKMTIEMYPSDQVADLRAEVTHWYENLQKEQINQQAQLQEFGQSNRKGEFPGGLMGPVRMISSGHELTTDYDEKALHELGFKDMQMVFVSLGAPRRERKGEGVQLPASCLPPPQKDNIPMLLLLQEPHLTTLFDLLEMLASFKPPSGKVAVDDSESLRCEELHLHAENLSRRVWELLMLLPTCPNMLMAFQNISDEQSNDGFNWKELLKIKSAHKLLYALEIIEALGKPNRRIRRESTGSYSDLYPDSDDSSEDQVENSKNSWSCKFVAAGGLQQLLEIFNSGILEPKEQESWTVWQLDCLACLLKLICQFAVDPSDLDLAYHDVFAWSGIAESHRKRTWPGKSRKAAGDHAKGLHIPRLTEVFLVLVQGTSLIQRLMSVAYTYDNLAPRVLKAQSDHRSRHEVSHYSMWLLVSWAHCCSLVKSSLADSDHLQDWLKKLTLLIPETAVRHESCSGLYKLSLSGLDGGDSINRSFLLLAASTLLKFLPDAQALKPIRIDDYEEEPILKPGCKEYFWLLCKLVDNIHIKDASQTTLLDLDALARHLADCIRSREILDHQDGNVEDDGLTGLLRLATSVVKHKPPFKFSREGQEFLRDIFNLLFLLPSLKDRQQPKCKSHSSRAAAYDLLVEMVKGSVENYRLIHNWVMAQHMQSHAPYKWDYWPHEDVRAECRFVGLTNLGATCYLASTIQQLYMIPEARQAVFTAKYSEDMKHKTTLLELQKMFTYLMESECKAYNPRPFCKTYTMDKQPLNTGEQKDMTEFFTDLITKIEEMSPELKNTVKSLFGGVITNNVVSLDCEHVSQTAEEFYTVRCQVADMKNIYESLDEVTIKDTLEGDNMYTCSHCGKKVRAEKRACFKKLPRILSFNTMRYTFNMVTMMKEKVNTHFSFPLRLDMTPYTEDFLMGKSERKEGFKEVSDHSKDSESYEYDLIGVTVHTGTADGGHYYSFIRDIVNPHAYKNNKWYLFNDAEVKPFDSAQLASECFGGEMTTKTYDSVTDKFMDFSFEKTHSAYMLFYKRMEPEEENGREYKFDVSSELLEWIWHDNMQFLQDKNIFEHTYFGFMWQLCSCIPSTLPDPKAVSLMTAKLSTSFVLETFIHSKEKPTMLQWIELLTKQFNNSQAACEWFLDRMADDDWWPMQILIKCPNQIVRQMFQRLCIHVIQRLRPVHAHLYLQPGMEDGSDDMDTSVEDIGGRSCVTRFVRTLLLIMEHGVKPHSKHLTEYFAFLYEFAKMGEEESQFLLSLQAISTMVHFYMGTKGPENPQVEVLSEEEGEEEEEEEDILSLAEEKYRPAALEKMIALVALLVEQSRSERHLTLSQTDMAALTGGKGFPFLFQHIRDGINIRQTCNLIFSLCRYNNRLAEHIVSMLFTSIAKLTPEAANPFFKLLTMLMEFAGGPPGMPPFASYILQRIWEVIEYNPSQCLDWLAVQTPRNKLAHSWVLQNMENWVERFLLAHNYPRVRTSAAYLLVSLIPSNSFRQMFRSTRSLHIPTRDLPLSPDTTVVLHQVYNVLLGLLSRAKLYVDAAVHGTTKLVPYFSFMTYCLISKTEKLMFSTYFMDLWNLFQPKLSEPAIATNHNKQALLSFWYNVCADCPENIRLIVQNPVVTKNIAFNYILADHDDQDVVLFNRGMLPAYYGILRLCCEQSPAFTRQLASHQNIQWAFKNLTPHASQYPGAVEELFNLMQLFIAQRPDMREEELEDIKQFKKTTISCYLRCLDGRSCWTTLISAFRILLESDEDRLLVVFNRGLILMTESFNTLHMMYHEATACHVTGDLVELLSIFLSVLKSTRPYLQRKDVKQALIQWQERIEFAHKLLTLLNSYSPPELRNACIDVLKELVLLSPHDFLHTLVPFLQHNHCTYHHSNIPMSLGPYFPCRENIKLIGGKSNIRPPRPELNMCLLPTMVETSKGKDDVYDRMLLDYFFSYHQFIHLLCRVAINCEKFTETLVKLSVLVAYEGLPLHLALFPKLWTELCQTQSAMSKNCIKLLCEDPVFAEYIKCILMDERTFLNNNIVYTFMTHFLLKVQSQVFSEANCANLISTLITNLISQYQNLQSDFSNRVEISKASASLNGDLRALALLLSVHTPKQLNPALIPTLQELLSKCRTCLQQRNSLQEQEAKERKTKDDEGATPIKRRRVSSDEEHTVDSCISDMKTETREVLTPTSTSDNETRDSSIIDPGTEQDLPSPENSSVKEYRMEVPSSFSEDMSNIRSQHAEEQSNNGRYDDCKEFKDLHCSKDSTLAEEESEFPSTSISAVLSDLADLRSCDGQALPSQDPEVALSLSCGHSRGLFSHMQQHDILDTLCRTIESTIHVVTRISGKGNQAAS

PELI1 C282 (Q96FA3) = molecular target: T3, PELI1 C282 (Q96FA3) (Homo sapiens, UniProt Q96FA3); conditions: for isoTOP-ABPP ratio (reactivity profile), Q96FA3_C282: 500 μm in-vitro ramos; for isoTOP-ABPP reactivity ratio, Q96FA3_C282 / isoTOP-ABPP reactivity profile ratio, Q96FA3_C282: 500 μm, in-vitro_ramos
T3 sequence (Q96FA3 1-418): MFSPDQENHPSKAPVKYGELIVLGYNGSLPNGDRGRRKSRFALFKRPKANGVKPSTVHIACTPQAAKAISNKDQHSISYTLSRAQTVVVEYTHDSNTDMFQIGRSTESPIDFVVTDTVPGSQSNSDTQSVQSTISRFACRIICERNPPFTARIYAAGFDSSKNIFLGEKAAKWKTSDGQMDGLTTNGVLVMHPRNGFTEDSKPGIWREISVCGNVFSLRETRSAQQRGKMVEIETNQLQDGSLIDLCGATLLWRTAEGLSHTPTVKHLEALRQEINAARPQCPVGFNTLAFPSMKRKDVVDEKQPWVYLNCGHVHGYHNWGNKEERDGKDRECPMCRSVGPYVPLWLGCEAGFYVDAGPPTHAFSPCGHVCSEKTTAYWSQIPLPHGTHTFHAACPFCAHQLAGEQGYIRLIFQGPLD

With COc1ccc2c(c1)CCCN2C(=O)CCl [compound 2] the “R value (DMSO/fragment)” value (IRAK1 C608 (P51617)) was 2.5, the “R value (DMSO/fragment)” value (NCF1 C378 (P14598); 500 μM, invitro, ramos) was 4.4 and the “R value (DMSO/fragment)” value (RELB C109 (Q01201); in vitro, MDA-MB-231) was 20.0. For the same molecule, the “R value (DMSO/fragment)” value (RELB C109 (Q01201); invitro, ramos) was 20.0.

With O=C(CCl)Nc1cc(C(F)(F)F)cc(C(F)(F)F)c1 [compound 3] the “R value (DMSO/fragment)” value (IRAK1 C608 (P51617)) was 20.0, the “R value (DMSO/fragment)” value (NCF1 C378 (P14598); 500 μM, invitro, ramos) was 2.1 and the “R value (DMSO/fragment)” value (USP34 C741 (Q70CQ2); 500 μM, invitro, ramos) was 3.2.

For COc1ccc(C2CC(c3cccs3)=NN2C(=O)CCl)cc1 (stereo not shown) [compound 4], the “R value (DMSO/fragment)” value (NCF1 C378 (P14598); 250 μM, in vitro, Ramos) was 1.4.

With C=CC(=O)N(c1ccccc1)c1ccc(Br)cc1 [compound 5] the “isoTOP-ABPP ratio, P51617_C608” value (IRAK1 C608 (P51617)) was 10.1 and the “isoTOP-ABPP ratio, P14598_C378” value (NCF1 C378 (P14598); 500 μM, invitro, ramos) was 4.0.

For O=C(CCl)N1CCN(S(=O)(=O)c2ccccc2F)CC1 [compound 10], the “isoTOP-ABPP ratio, P14598_C378” value (NCF1 C378 (P14598); 500 μM, invitro, ramos) was 1.1 and the “isoTOP-ABPP ratio, Q70CQ2_C741” value (USP34 C741 (Q70CQ2); 500 μM, invitro, ramos) was 0.9.

Cn1cc(S(=O)(=O)N2CCOCC2)cc1C(=O)NC(=O)CCl [compound 11] was tested, and the “isoTOP-ABPP ratio, P51617_C608” value (IRAK1 C608 (P51617)) was 1.3.

In the case of O=C(CCl)NCCc1c[nH]c2ccccc12 [compound 13], the “isoTOP-ABPP ratio, P14598_C378” value (NCF1 C378 (P14598); 500 μM, invitro, ramos) is reported as 0.7 and the “isoTOP-ABPP ratio, Q70CQ2_C741” value (USP34 C741 (Q70CQ2); 500 μM, invitro, 231) is reported as 0.8.

O=C(CCl)N1CCC(C(O)(c2ccccc2)c2ccccc2)CC1 [compound 20] was tested, and the “isoTOP-ABPP ratio (reactivity profile), Q70CQ2_C741” value (USP34 C741 (Q70CQ2); 500 μm in-vitro ramos) was 1.7 and the “isoTOP-ABPP ratio (reactivity profile), Q70CQ2_C741” value (USP34 C741 (Q70CQ2); 500 μm in-vitro ramos_231) was 2.8.

With O=C(CCl)NC12CC3CC(CC(C3)C1)C2 [compound 21] the “isoTOP-ABPP ratio (reactivity profile), Q70CQ2_C741” value (USP34 C741 (Q70CQ2); 500 μm in-vitro ramos) was 1.7.

For N#C/C(=C\c1cc(C(F)(F)F)cc(C(F)(F)F)c1)C(N)=O [compound 23], the “isoTOP-ABPP ratio (reactivity profile), P51617_C608” value (IRAK1 C608 (P51617)) was 1.5 and the “isoTOP-ABPP ratio (reactivity profile), Q01201_C109” value (from here on “isoTOP-ABPP ratio … Q01201_C109”) (RELB C109 (Q01201); 500 μm in-vitro ramos) was 1.3.

With CC(Br)C(=O)Nc1cc(C(F)(F)F)cc(C(F)(F)F)c1 (stereo not shown) [compound 24] the “isoTOP-ABPP ratio (reactivity profile), P51617_C608” value (IRAK1 C608 (P51617)) was 1.3 and the “isoTOP-ABPP ratio … Q01201_C109” value (RELB C109 (Q01201); 500 μm in-vitro ramos) was 1.5.

With O=C(/C=C/c1ccccc1)Nc1cc(C(F)(F)F)cc(C(F)(F)F)c1 [compound 26] the “isoTOP-ABPP ratio (reactivity profile), Q96FA3_C282” value (PELI1 C282 (Q96FA3)) was 0.5.

In the case of CC(C)CCOCCNC(=O)CCl [compound 27], the “isoTOP-ABPP ratio … Q01201_C109” value (RELB C109 (Q01201); 500 μm in-vitro ramos_231) is reported as 0.8.

With COc1ccccc1OCCNC(=O)CCl [compound 28] the “isoTOP-ABPP ratio (reactivity profile), Q96FA3_C282” value (PELI1 C282 (Q96FA3)) was 0.7 and the “isoTOP-ABPP ratio … Q01201_C109” value (RELB C109 (Q01201); 500 μm in-vitro ramos) was 1.1.

CCN(CC)c1ccc(S(N)(=O)=O)cc1NC(=O)CCl [compound 30] was tested, and the “isoTOP-ABPP reactivity ratio, Q96FA3_C282” value (PELI1 C282 (Q96FA3)) was 1.5.

For C=CC(=O)N(Cc1cccnc1)c1cc(C(F)(F)F)cc(C(F)(F)F)c1 [compound 31], the “isoTOP-ABPP reactivity ratio, Q70CQ2_C741” value (USP34 C741 (Q70CQ2); 500 μm, in-vitro_ramos_231) was 4.2.

With CC(C)(C)c1cc(NC(=O)CCl)on1 [compound 32] the “isoTOP-ABPP reactivity ratio, P51617_C608” value (IRAK1 C608 (P51617); in-vitro_ramos) was 2.9, the “isoTOP-ABPP reactivity ratio, P51617_C608” value (IRAK1 C608 (P51617); in-vitro_ramos_231) was 5.8 and the “isoTOP-ABPP reactivity ratio, Q01201_C109” value (RELB C109 (Q01201); 500 μm, in-vitro_ramos) was 20.0.

With C=CC(=O)N1CCC(c2noc3ccc(F)cc23)CC1 [compound 37] the “isoTOP-ABPP reactivity ratio, Q70CQ2_C741” value (USP34 C741 (Q70CQ2); 500 μm, in-vitro_ramos) was 1.1.

In the case of C=CC(=O)Nc1cc(F)c(N2CCN(C(=O)OC(C)(C)C)CC2)c(F)c1 [compound 38], the “isoTOP-ABPP reactivity ratio, P51617_C608” value (IRAK1 C608 (P51617); in-vitro_ramos) is reported as 2.4, the “isoTOP-ABPP reactivity ratio, Q96FA3_C282” value (PELI1 C282 (Q96FA3)) is reported as 7.0 and the “isoTOP-ABPP reactivity ratio, Q70CQ2_C741” value (USP34 C741 (Q70CQ2); 500 μm, in-vitro_ramos) is reported as 4.1.

In the case of Cc1ccc(C=C(C#N)C(=O)NCCN2CCOCC2)cc1 [compound 41], the “isoTOP-ABPP reactivity ratio, P51617_C608” value (IRAK1 C608 (P51617); in-vitro_ramos_231) is reported as 1.1.

N#CC(=Cc1ccc(-c2ccccc2Cl)o1)C(N)=O [compound 42] was tested, and the “isoTOP-ABPP reactivity profile ratio, Q96FA3_C282” value (PELI1 C282 (Q96FA3)) was 1.2.

COc1cc(NC(=O)CCl)cc(OC)c1 [compound 43] was tested, and the “isoTOP-ABPP reactivity profile ratio, P14598_C378” value (NCF1 C378 (P14598); 500 μm, in-vitro_ramos) was 1.2.

In the case of O=C(CCl)Nc1cccc2ncccc12 [compound 51], the “isoTOP-ABPP reactivity profile ratio, P51617_C608” value (IRAK1 C608 (P51617); in-vitro_ramos) is reported as 1.1, the “isoTOP-ABPP reactivity profile ratio, Q01201_C109” value (RELB C109 (Q01201); 500 μm, in-vitro_ramos) is reported as 1.6 and the “isoTOP-ABPP reactivity profile ratio, Q70CQ2_C741” value (USP34 C741 (Q70CQ2); 500 μm, in-vitro_ramos) is reported as 0.9.

With O=C(CCl)Nc1ccc(-c2ccccc2)cc1 [compound 52] the “isoTOP-ABPP reactivity profile ratio, P51617_C608” value (IRAK1 C608 (P51617); in-vitro_ramos) was 17.6 and the “isoTOP-ABPP reactivity profile ratio, Q96FA3_C282” value (PELI1 C282 (Q96FA3)) was 20.0.
